Data from publication PMC5766581, “NF-κB inducing kinase is a therapeutic target for systemic lupus erythematosus” (Nature Communications, 2018).
Entries after “also recorded” stand apart in the source; their conditions may differ.

Tests used:
C57BL/6 mice = experiment: Seven-day in vivo B cell survival model; set-up: species or system mouse
NZB/W F1 mice [1] = experiment: rAdV-IFNα-accelerated NZB/W F1 lupus model, survival study; assay type: in vivo, mouse
Protocol: (§1) Age-matched (NZB x NZW) F1 mice were purchased from Jackson Laboratory. Fourteen to fifteen weeks old female NZB/W F1 mice were injected i.v. with 1.2 × 10^8 rAD5-CMV-IFNα (rAdV-IFNα) particles (Genentech) to accelerate disease[34],[69]. […] In efficacy studies, proteinuria and survival were tracked through day 84. A 4-week PD study was performed to measure cell subsets, serum Ig, chemokines, cytokines, and gene expression.
(§2) Kidneys were immersed in 10% neutral buffered formalin at ambient temperature for 24 h, then paraffin-embedded using routine methods. Four micron histologic sections were stained with Periodic acid–Schiff (PAS) for evaluation of glomerulonephritis and hematoxylin and eosin (H&E) for visual evaluation of interstitial inflammation by light microscopy. Scoring by the pathologist was performed in a blinded fashion. Glomerulonephritis severity scoring was on a 4-point semi-quantitative scale: “0” – normal or mild global lesions in <50% of glomeruli, “1”—global lesions in > 50% of glomeruli, <20% of which are severe (defined as >1 segment with <3 patent capillaries), “2”—global lesions in >50% of glomeruli, 20–80% of which are severe, and “3”— >80% of glomeruli with severe global lesions. Chronic pyelitis, cortical periarteritis, and tubulointerstitial nephritis severity was determined by blinded disease scoring. Severity scores for tubulointerstitial nephritis, periarteritis, and pyelitis were all on 4-point semiquantitative scales: “0”—no significant inflammation, “1”—sparse or focal inflammatory infiltrates, “2”—occasional moderately sized inflammatory infiltrates, and “3”—frequent large inflammatory infiltrates. Proteinuria measurements were done by dipstick (Multistix, Bayer Diagnostics). Protein concentration was assigned a proteinuria score with trace = […] = 1, 100 mg/dl = 2, >300 mg/dl = 4, and dead mice = 5.

NZB/W F1 mice [2] = experiment: rAdV-IFNα-accelerated NZB/W F1 lupus model, 4-week biomarker study; assay type: in vivo; conditions: 180 mg/kg BID P.O.
Protocol: as §1, §2

FVB mice = experiment: Imiquimod-induced FVB mouse lupus model; assay type: in vivo; conditions: 200 mg/kg P.O. BID; Imiquimod treated FVB mice
Protocol: Age-matched female FVB mice were purchased from Jackson Laboratory and randomized into experimental groups upon receipt. Ten-week-old female FVB mice were treated with 10 mg of 5% Imiquimod cream (Taro Pharmaceuticals, USA, Hawthorne, N.Y.) applied to the left ear (three doses per week for the duration of the study). […] Proteinuria and survival were tracked through day 91. Plasma PK measurement was done at day 85 prior to the end of the study.

[3] = tested on: p52 processing in mouse RPTEC; experiment: TWEAK-induced p52 processing western blot in RPTEC; assay type: cell-based; conditions: murine RPTEC; 3 μM; 4, 8 and 24 h
Protocol: (§3) p52/p100 and β-actin were monitored by western blot as described previously. […] Mouse and human RPTEC cells were stimulated with recombinant mouse or human TWEAK (100 ng/mL, R&D Systems). Primary B cells were isolated by negative selection (Miltenyi) from either mouse spleen or human whole blood. Human primary B cells were stimulated with either rhCD40L (10 μg/mL) or rhBAFF (400 ng/mL) (R&D Systems). Mouse primary B cells were stimulated with either anti-CD40 (10 μg/mL, BD Biosciences) or rmBAFF (400 ng/mL). […] HeLa cells (ATCC) were stimulated for 8 h with anti-LTβR agonist antibody and cytoplasmic and nuclear extracts were generated using kits purchase from Thermo Scientific and approximately […] of each extract was monitored for p52/p100, phospho-RelA, RelA, or β-Actin, Histone H3, or Lamin B1 controls. Uncropped western blots, as required by journal policies, are provided in Supplementary Fig. 13 and 14.

[4] = tested on: p52 processing in human RPTEC; experiment: TWEAK-induced p52 processing western blot in RPTEC; assay type: cell-based; conditions: 1 μM, 4, 8 and 24 h
Protocol: as §3

[5] = tested on: IL-12p40 production from human monocyte derived DC; experiment: CD40L induced IL-12p40 production from human DCs; assay type: cell-based
Protocol: Human monocytes were enriched from whole blood (Monocyte enrichment RosetteSep, Stem Cell) followed by isolation using Monocyte Isolation Kit II (Miltenyi). Isolated monocytes were cultured (RPMI-10% FBS, penicillin/streptomycin, glutamine) with rhGM-CSF (100 ng/mL) and rhIL-4 (6.5 ng/mL) (R&D Systems) for 5 days with GM-CSF replacement on day 3. On Day 5 immature monocyte derived DCs were monitored for differentiation by flow cytometry ([…], CD83^low CD86^low CD209^+/hi). […] After 24 h plates were centrifuged and supernatants were removed for IL-12p40 cytokine measurement by ELISA (BD Biosciences). Plots and IC50 measurements were generated using GraphPad Prism software.

CDK5/p25 = molecular target: T1, CDK5/p25 (Homo sapiens, UniProt Q00535); experiment: SelectScreen kinase panel; assay type: biochemical
T1 construct: purchased Invitrogen / ThermoFisher SelectScreen
T1 sequence (Q00535 whole entry): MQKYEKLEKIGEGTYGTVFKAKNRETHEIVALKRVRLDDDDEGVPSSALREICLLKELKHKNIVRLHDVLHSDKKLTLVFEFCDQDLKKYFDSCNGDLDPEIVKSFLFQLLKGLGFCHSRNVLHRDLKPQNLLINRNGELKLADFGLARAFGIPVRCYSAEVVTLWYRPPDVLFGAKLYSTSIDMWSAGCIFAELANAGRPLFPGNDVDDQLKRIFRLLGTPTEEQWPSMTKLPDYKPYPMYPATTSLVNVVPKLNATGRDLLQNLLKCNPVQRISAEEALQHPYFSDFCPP
T1 sequence (Q15078 99-307 partner limits assumed): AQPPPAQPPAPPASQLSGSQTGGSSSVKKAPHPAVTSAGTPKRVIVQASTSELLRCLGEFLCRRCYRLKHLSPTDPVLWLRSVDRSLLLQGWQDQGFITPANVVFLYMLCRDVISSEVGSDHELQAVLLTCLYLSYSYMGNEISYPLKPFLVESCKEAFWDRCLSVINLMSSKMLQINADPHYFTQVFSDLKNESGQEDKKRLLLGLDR

## COc1cc(C(N)=O)nc(-c2cccc(C#C[C@]3(O)CCN(C)C3=O)c2)c1 [NIK SMI1]
C57BL/6 mice; 6-400 mg/kg BID oral, 7 days
  splenic cellularity, frequency and absolute numbers of total B2, marginal zone and follicular B cells in the spleen: dose-dependently reduced
C57BL/6 mice; after 1 week of treatment, oral BID
  reduction of serum IgA levels: approximately 50%
NZB/W F1 mice [1]; 180 mg/kg BID P.O., 9 weeks
  reduction of mortality: about 50%
NZB/W F1 mice [1]; 180 mg/kg, 12 h after the prior dose, based on PK sampling
  inhibition of NIK at the time point of lowest exposure: about 70%
NZB/W F1 mice [1]; 9 weeks of treatment, AUC day 19-84
  proteinuria score: statistically significant reduction
NZB/W F1 mice [1]; IFNα-accelerated NZB/W F1 mice
  survival: improved survival
NZB/W F1 mice [2]; 4 weeks
  frequency and numbers of splenic B cells, germinal center B cells and plasma cells: decreased
  frequency and numbers of splenic T effector memory (TEM) and T follicular helper (TFH) cells: significantly reduced
  frequency and numbers of total CD4+ T-cells: did not affect
  histopathologic scores of glomerulonephritis: reduced
  kidney expression of CCL9, CCL2, CXCL13 and CXCL11: reduced
  serum CXCL16: significantly reduced
  serum TNF and IL-12p40: reduced
  spleen weight or total splenocyte count: did not have a substantial effect
  splenic expression of ICOS and IL-21: reduced
  splenic expression of Immunoglobulin J (Igj): strongly suppressed
NZB/W F1 mice [2]; 4 weeks, vs BR3-mIgG2a
  suppression of serum anti-histone autoantibodies: superior to BAFF blockade
NZB/W F1 mice [2]; 12 hours after final dose
  terminal exposure vs in vitro IC70: at or above the in vitro-determined IC70 concentration
FVB mice
  survival: efficacious; also recorded: improved survival
[3]
  TWEAK-induced p52 processing: significantly reduced
[4]
  TWEAK-induced p52 processing: significantly reduced
[5]; dendritic cells
  CD40L-induced IL-12p40 production: nearly completely inhibited
[5]; human monocyte derived DC, rhCD40L, mean ± SD, read-out: CD40-induced IL-12 p40 IC50
  IC50: 95.8 nM
CDK5/p25
  inhibition at 1 µM: 2.5%
